Earlier results, collected in patent US20260365653A1, “IRREVERSIBLE MUTEGFR INHIBITORS” (Bayer Aktiengesellschaft, priority 2022, published 2026).

Legend:
wild-type EGFR = conditions: cited from earlier work
EGFR exon20 insertions = conditions: patients with EGFR exon20 insertions; cited from earlier work
[1] = test system: mutations in exons 18, 19, and 21 of EGFR; conditions: cited from earlier work

CN(C)C/C=C/C(=O)Nc1cc2c(Nc3ccc(F)c(Cl)c3)ncnc2cc1O[C@H]1CCOC1 [afatinib]
inhibition of wild-type EGFR (wild-type EGFR): potent inhibitors of wild-type EGFR
overall survival (EGFR exon20 insertions): significantly reduced
progression-free survival (EGFR exon20 insertions): significantly reduced
response rates (EGFR exon20 insertions): particular low response rates
durability of response [1]: often not durable
efficacy in patients [1]: effective in patients
